Results: PubChem BioAssay AID2060325 (Molecular Pharmacology Branch, DTP, NCI, 2025)
pIC50: −log10 of the molar value.

Test system: SK-OV-3 multi-cell spheroids, viability
Experiment: Anticancer human tumor SK-OV-3 cell line growth inhibition [IpAb];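 on viability, T/C: viability read after seven days of drug exposure; percent of DMSO vehicle control luminescence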
Conditions: for pIC50: curve of first compound; for viability, T/C: stronger effect = lower value
Source text: Combinatorial screen of targeted agents with ipatasertib and abemaciclib in multi-cell type tumor spheroids
A high-throughput screen of multi-cell type tumor spheroids was designed to identify active combinations of targeted small molecules and ipatasertib or abemaciclib. Complex spheroids include a stromal component modeled by human endothelial cells (HUVEC) and fibroblasts modeled by human mesenchymal stem cells (MSCs). The concentration ranges selected for each drug and investigational agent were based upon clinically achievable concentrations if the clinical Cmax of the agent was known.
Compounds. The drugs and investigational agents: ipatasertib (NSC767898), abemaciclib(NSC768073), selumetinib (NSC741078), trametinib (758246), adavosertib (NSC754352), everolimus (NSC733504), sapanisertib (NSC764658), vemurafenib (NSC761431), venetoclax (NSC766270), copanlisib (NSC809693), apelisib (NSC765974), palbociblib (NSC758247), vemurafenib (NSC761431), dabrafenib (NSC764134), ravoxertinib (NSC781343), BMS-387032 (NSC767048), sotorasib (NSC818433), talazoparib (NSC767125) and afursertib (NSC778305), were obtained from the National Cancer Institute (NCI) Developmental Therapeutics Program Chemical Repository. The FDA-approved anticancer drug set is available from the NCI Developmental Therapeutics Program. […] The stock solutions were prepared in dimethyl sulfoxide (DMSO, Sigma-Aldrich, St. Louis, MO, cat. D2650) at 800-fold the tested concentration and stored at -70 degrees C prior to their use. All drugs and investigational agents were tested over a range starting from a high concentration at or near the clinical Cmax and decreasing in half-log increments. If the clinical Cmax for an agent had not been determined, the highest concentration tested was 10 microM.
NCI60 Cell Culture. NCI60 cell lines were obtained from the NCI Developmental Therapeutics Program Tumor Repository. For each lot of cells, the Repository performed Applied Biosystems AmpFLSTR Identifiler testing with PCR amplification to confirm consistency with the published Identifier STR profile for each cell line. Cells were kept in continuous culture for no more than 20 passages. The optimal seeding densities for each of the cell lines at each time point assessed were determined prior to performing the concentration response studies. Briefly, the NCI60 human tumor lines were grown as monolayers in RPMI 1640 medium supplemented with 10% FBS and 2 mmol/L L-glutamine.
An additional 9 lines were from the NCI60 cell line panel including MDA-MB-231 breast carcinoma, MDA-MB-468 breast carcinoma, MCF7 breast carcinoma, Hs578T breast carcinoma, MALME-3M melanoma, SK-MEL-2 melanoma, SK-OV-3 ovarian carcinoma, DU-145 prostate carcinoma, PC-3 prostate carcinoma, all cell lines along with major genetic alterations are listed on Table 2. Pooled donor human umbilical vein endothelial cells (HUVEC, Lonza, cat. CC-2519) and human mesenchymal stem cells (hMSC, Lonza, cat. PT-2501) were purchased from Lonza (Walkersville, MD).
PDMR cell lines were grown in complete medium (DC medium): Dulbecco's modified Eagle's medium (DMEM)/F12 supplemented with 5% fetal bovine serum (FBS), 2 mM L-glutamine, 100 U/mL penicillin and 100 µg/ml streptomycin, 0.4 µg/ml hydrocortisone, 10 ng/ml epidermal growth factor (EGF) recombinant human protein, 24 µg/mL adenine, and 0.1 mg/mL primocin. During culture from frozen stock vials, PDMR cells were cultured in the same medium containing 10 µM Y-27632 (see Table 3). The PDCs were cultured in complete DMEM/F12 media without 10 microM Y-27632 dihydrochloride for at least two passages prior to the screen. The pooled donor HUVEC and hMSC were cultured in endothelial cell growth medium 2 (PromoCell, Heidelberg, Germany, cat. C-22011) and mesenchymal stem cell growth medium 2 (PromoCell, cat. C-28009), respectively. For all experiments, HUVEC and hMSC were used at passages </=5.
[…]

[1] = second compound 0.1 µM, first compound 0.00316 µM
[2] = second compound 0.1 µM, first compound 0.01 µM
[3] = second compound 0.1 µM, first compound 0.0316 µM
[4] = second compound 0.1 µM, first compound 0.1 µM
[5] = second compound 0.316 µM, first compound 0.00316 µM
[6] = second compound 0.316 µM, first compound 0.01 µM
[7] = second compound 0.316 µM, first compound 0.0316 µM
[8] = second compound 0.316 µM, first compound 0.1 µM
[9] = second compound 1 µM, first compound 0.00316 µM
[10] = second compound 1 µM, first compound 0.01 µM
[11] = second compound 1 µM, first compound 0.0316 µM
[12] = second compound 1 µM, first compound 0.1 µM
[13] = second compound 3.16 µM, first compound 0.00316 µM
[14] = second compound 3.16 µM, first compound 0.01 µM
[15] = second compound 3.16 µM, first compound 0.0316 µM
[16] = second compound 3.16 µM, first compound 0.1 µM
[17] = second compound 10 µM, first compound 0.00316 µM
[18] = second compound 10 µM, first compound 0.01 µM
[19] = second compound 10 µM, first compound 0.0316 µM
[20] = second compound 10 µM, first compound 0.1 µM
[21] = second compound 0.1 µM, first compound 0.316 µM
[22] = second compound 0.1 µM, first compound 1 µM
[23] = second compound 0.1 µM, first compound 3.16 µM
[24] = second compound 0.1 µM, first compound 10 µM
[25] = second compound 0.316 µM, first compound 0.316 µM
[26] = second compound 0.316 µM, first compound 1 µM
[27] = second compound 0.316 µM, first compound 3.16 µM
[28] = second compound 0.316 µM, first compound 10 µM
[29] = second compound 1 µM, first compound 0.316 µM
[30] = second compound 1 µM, first compound 1 µM
[31] = second compound 1 µM, first compound 3.16 µM
[32] = second compound 1 µM, first compound 10 µM
[33] = second compound 3.16 µM, first compound 0.316 µM
[34] = second compound 3.16 µM, first compound 1 µM
[35] = second compound 3.16 µM, first compound 3.16 µM
[36] = second compound 3.16 µM, first compound 10 µM
[37] = second compound 10 µM, first compound 0.316 µM
[38] = second compound 10 µM, first compound 1 µM
[39] = second compound 10 µM, first compound 3.16 µM
[40] = second compound 10 µM, first compound 10 µM

SMILES | pIC50 (second compound 0.1 µM) | pIC50 (second compound 0.316 µM) | pIC50 (second compound 1 µM) | pIC50 (second compound 3.16 µM) | pIC50 (second compound 10 µM) | viability, T/C [3] | viability, T/C [4] | viability, T/C [7] | viability, T/C [8] | viability, T/C [11] | viability, T/C [12] | viability, T/C [15] | viability, T/C [16] | viability, T/C [19] | viability, T/C [20] | viability, T/C [21] | viability, T/C [22] | viability, T/C [25] | viability, T/C [26] | viability, T/C [29] | further results
CC(C)n1nc(-c2ccc3oc(N)nc3c2)c2c(N)ncnc21 + CC(C)NCC(C(=O)N1CCN(c2ncnc3c2C(C)CC3O)CC1)c1ccc(Cl)cc1 | 9.21 | > 9.50 | > 9.50 | > 9.50 | > 9.50 | 8.65% | 6.5% | 5.66% | 4.86% | 4.57% | 4.78% | 3.82% | 3.94% | 2.31% | 3.23% | – | – | – | – | – | viability, T/C (second compound 0.1 µM, first compound 0.000316 µM): 59.2%; viability, T/C (second compound 0.1 µM, first compound 0.001 µM): 43.4%; viability, T/C [1]: 26.4%; viability, T/C [2]: 13.7%; viability, T/C (second compound 0.316 µM, first compound 0.000316 µM): 32%; viability, T/C (second compound 0.316 µM, first compound 0.001 µM): 24.6%; viability, T/C [5]: 19.7%; viability, T/C [6]: 9.18%; viability, T/C (second compound 1 µM, first compound 0.000316 µM): 18.7%; viability, T/C (second compound 1 µM, first compound 0.001 µM): 14.1%; viability, T/C [9]: 12%; viability, T/C [10]: 7.26%; viability, T/C (second compound 3.16 µM, first compound 0.000316 µM): 14.5%; viability, T/C (second compound 3.16 µM, first compound 0.001 µM): 12.7%; viability, T/C [13]: 9.97%; viability, T/C [14]: 5.51%; viability, T/C (second compound 10 µM, first compound 0.000316 µM): 8.69%; viability, T/C (second compound 10 µM, first compound 0.001 µM): 9.03%; viability, T/C [17]: 6.95%; viability, T/C [18]: 3.56%
CC1(C)CCC(CN2CCN(c3ccc(C(=O)NS(=O)(=O)c4ccc(NCC5CCOCC5)c([N+](=O)[O-])c4)c(Oc4cnc5[nH]ccc5c4)c3)CC2)=C(c2ccc(Cl)cc2)C1 + CC(C)NCC(C(=O)N1CCN(c2ncnc3c2C(C)CC3O)CC1)c1ccc(Cl)cc1 | 5.49 | > 7.50 | > 7.50 | > 7.50 | > 7.50 | 64.3% | 70.6% | 33.6% | 38.2% | 21.1% | 27.3% | 15.5% | 15.3% | 7.25% | 9.06% | 68% | 58.6% | 31.7% | 31.6% | 21.6% | viability, T/C [23]: 51.2%; viability, T/C [24]: 26.1%; viability, T/C [27]: 28%; viability, T/C [28]: 18.6%; viability, T/C [30]: 18.9%; viability, T/C [31]: 17%; viability, T/C [32]: 13.7%; viability, T/C [33]: 14.2%; viability, T/C [34]: 13.9%; viability, T/C [35]: 11.1%; viability, T/C [36]: 7.06%; viability, T/C [37]: 8.25%; viability, T/C [38]: 6.89%; viability, T/C [39]: 5.18%; viability, T/C [40]: 4.58%
CCCS(=O)(=O)Nc1ccc(F)c(C(=O)c2c[nH]c3ncc(-c4ccc(Cl)cc4)cc23)c1F + CC(C)NCC(C(=O)N1CCN(c2ncnc3c2C(C)CC3O)CC1)c1ccc(Cl)cc1 | 5.32 | > 7.50 | > 7.50 | > 7.50 | > 7.50 | 70.2% | 74.1% | 38.8% | 36.5% | 20.5% | 22.4% | 17.1% | 18.6% | 8.73% | 9.5% | 67.5% | 73.9% | 38.1% | 36.1% | 21.3% | viability, T/C [23]: 64.3%; viability, T/C [24]: 23.3%; viability, T/C [27]: 28.2%; viability, T/C [28]: 13.9%; viability, T/C [30]: 17.9%; viability, T/C [31]: 15.3%; viability, T/C [32]: 6.91%; viability, T/C [33]: 15.7%; viability, T/C [34]: 15.7%; viability, T/C [35]: 15.1%; viability, T/C [36]: 6.79%; viability, T/C [37]: 9.69%; viability, T/C [38]: 8.84%; viability, T/C [39]: 9.71%; viability, T/C [40]: 2.52%
COc1c(OCCCN2CCOCC2)ccc2c3n(c(=NC(=O)c4cnc(N)nc4)nc12)CCN3 + CC(C)NCC(C(=O)N1CCN(c2ncnc3c2C(C)CC3O)CC1)c1ccc(Cl)cc1 | 8.42 | > 8.50 | > 8.50 | > 8.50 | > 8.50 | 12.1% | 6.59% | 9.72% | 7.09% | 8.59% | 6.92% | 8.55% | 6.85% | 5.36% | 4.04% | 5.28% | 3.75% | 5.47% | 3.33% | 4.3% | viability, T/C [1]: 53.7%; viability, T/C [2]: 31.3%; viability, T/C [5]: 29.5%; viability, T/C [6]: 18.4%; viability, T/C [9]: 17.3%; viability, T/C [10]: 11%; viability, T/C [30]: 2.76%; viability, T/C [13]: 12.3%; viability, T/C [14]: 9.35%; viability, T/C [33]: 4.48%; viability, T/C [34]: 2.41%; viability, T/C [17]: 6.56%; viability, T/C [18]: 5.87%; viability, T/C [37]: 2.89%; viability, T/C [38]: 1.6%
